Measured values reported in patent US20060069132A1, “Azolecarboxamide herbicides” (priority 2004, published 2006).

Tests used:
barnyardgrass [1] = assay: Test A pre-/postemergence herbicide test; format: in vivo, Echinochloa crus-galli
How it was run: (§1)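 Sandy loam soil given preemergence directed spray; plants at 2 to 10 cm, one- to two-leaf stage, sprayed to runoff postemergence, compounds in non-phytotoxic solvent with surfactant. Injury rated visually versus untreated controls after about ten greenhouse days, 0 (no effect) to 100 (complete control); dash means not tested.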

large crabgrass [2] = assay: Test A pre-/postemergence herbicide test; format: in vivo, Digitaria sanguinalis
How it was run: as §1

giant foxtail [3] = assay: Test A pre-/postemergence herbicide test; format: in vivo, Setaria faberi
How it was run: as §1

morningglory [4] = assay: Test A pre-/postemergence herbicide test; format: in vivo, Ipomoea spp.
How it was run: as §1

redroot pigweed = assay: Test A pre-/postemergence herbicide test; format: in vivo, Amaranthus retroflexus
How it was run: as §1

velvetleaf [5] = assay: Test A pre-/postemergence herbicide test; format: in vivo, Abutilon theophrasti
How it was run: as §1

barnyardgrass [6] = assay: Test B pre-/postemergence herbicide test; format: in vivo, Echinochloa crus-galli
How it was run: (§2)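 Test chemicals in a non-phytotoxic solvent mixture with surfactant were applied preemergence to seeded species and postemergence to plants 2-18 cm tall (1- to 4-leaf stage); rice and barnyardgrass were also tested in a flooded paddy at the 2-leaf stage. Visual rating versus controls after 13-15 days in greenhouse, scale 0 (no effect) to 100 (complete control).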

Surinam grass = assay: Test B pre-/postemergence herbicide test; format: in vivo, Urochloa decumbens
How it was run: (§3)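 Herbicidal effect was judged by eye on a 0–100 scale after plants stood 13 to 15 days in the greenhouse following pre- or postemergence treatment with surfactant-containing formulations.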

cocklebur = assay: Test B pre-/postemergence herbicide test; format: in vivo, Xanthium strumarium
How it was run: as §2

corn = assay: Test B pre-/postemergence herbicide test; format: in vivo, Zea mays
How it was run: as §3

large crabgrass [7] = assay: Test B pre-/postemergence herbicide test; format: in vivo, Digitaria sanguinalis
How it was run: as §3

giant foxtail [8] = assay: Test B pre-/postemergence herbicide test; format: in vivo, Setaria faberi
How it was run: as §3

lambsquarters = assay: Test B pre-/postemergence herbicide test; format: in vivo, Chenopodium album
How it was run: as §3

morningglory [9] = assay: Test B pre-/postemergence herbicide test; format: in vivo, Ipomoea coccinea
How it was run: as §2

pigweed = assay: Test B pre-/postemergence herbicide test; format: in vivo, Amaranthus retroflexus
How it was run: as §3

velvetleaf [10] = assay: Test B pre-/postemergence herbicide test; format: in vivo, Abutilon theophrasti
How it was run: as §3

blackgrass = assay: Test B postemergence herbicide test; format: in vivo, Alopecurus myosuroides; conditions: Postemergence, scale 0 (no effect) to 100 (complete control)
How it was run: (§4)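 Paddy species grown to the 2-leaf stage under flooding; blackgrass sprayed postemergence at 2–18 cm (1- to 4-leaf stage). Plants kept in a greenhouse for 13 to 15 days, then visually rated against controls on 0 (no effect) to 100 (complete control).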

wheat = assay: Test B postemergence herbicide test; format: in vivo, Triticum aestivum; conditions: Postemergence, 500 g ai/ha; visual rating after 13 to 15 days, scale 0 (no effect) to 100 (complete control)
How it was run: (§5)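 Read-out: visual comparison with controls, scored 0 to 100, where 100 means complete control and 0 no effect. Formulated chemicals were applied postemergence to plants 2–18 cm tall (1- to 4-leaf), or to flooded-paddy plants at the 2-leaf stage, then held 13 to 15 days under glass.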

wild oat = assay: Test B postemergence herbicide test; format: in vivo, Avena fatua; conditions: Postemergence, scale 0 (no effect) to 100 (complete control)
How it was run: as §5

rice = assay: Test B flooded paddy test; format: in vivo, Oryza sativa; conditions: 1000 g ai/ha, visual rating, scale 0 to 100 (0 no effect, 100 complete control), 13 to 15 days
How it was run: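 Treated at 2-leaf (paddy) or 1–4-leaf, 2–18 cm (postemergence); greenhouse 13–15 d; visual score vs control, 0 none to 100 complete control; dash = not tested.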

[11] = test system: small flower umbrella sedge; assay: Test B flooded paddy test; format: in vivo, Cyperus difformis; conditions: 1000 g ai/ha, visual rating, scale 0 to 100 (0 no effect, 100 complete control), 13 to 15 days
How it was run: as §4

ducksalad = assay: Test B flooded paddy test; format: in vivo, Heteranthera limosa; conditions: 1000 g ai/ha, visual rating, scale 0 to 100 (0 no effect, 100 complete control), 13 to 15 days
How it was run: as §4

barnyardgrass [12] = assay: Test B flooded paddy test; format: in vivo, Echinochloa crus-galli; conditions: 1000 g ai/ha, visual rating, scale 0 to 100 (0 no effect, 100 complete control), 13 to 15 days
How it was run: as §4

[13] = Postemergence, 250 g ai/ha, 0 to 100 scale, 0 no effect, 100 complete control
[14] = Postemergence, 1000 g ai/ha, 0 to 100 scale, 0 no effect, 100 complete control
[15] = Preemergence, 1000 g ai/ha, visual rating, 0 to 100 scale (0 no effect, 100 complete control)
[16] = preemergence, 250 g ai/ha, visual injury, 0 to 100 scale (0 no effect, 100 complete control)
[17] = Postemergence, 125 g ai/ha, scale 0 (no effect) to 100 (complete control)
[18] = Postemergence, 500 g ai/ha, visual rating after 13 to 15 days, scale 0 (no effect) to 100 (complete control)
[19] = Preemergence, 500 g ai/ha, scale 0 to 100
[20] = preemergence, 125 g ai/ha, 0 to 100 scale, 0 is no effect, 100 is complete control
[21] = 500 g ai/ha, visual rating after 13 to 15 days

CCN(CC)C(=O)c1cccc(NC(=O)c2cc(C(C)(C)C)nn2CC(F)(F)F)c1 [Compound 32]
Barnyardgrass plant response rating (barnyardgrass [1]; [13]): 0
Plant response rating, Barnyardgrass (barnyardgrass [1]; [14]): 0
Barnyardgrass plant response rating (barnyardgrass [1]; [15]): 0
Barnyardgrass plant response rating (barnyardgrass [1]; [16]): 0
Crabgrass, Large plant response rating (large crabgrass [2]; [13]): 0
Plant response rating, Crabgrass, Large (large crabgrass [2]; [14]): 0
Crabgrass, Large plant response rating (large crabgrass [2]; [15]): 0
Crabgrass, Large plant response rating (large crabgrass [2]; [16]): 0
Foxtail, Giant plant response rating (giant foxtail [3]; [13]): 0
Plant response rating, Foxtail, Giant (giant foxtail [3]; [14]): 0
Foxtail, Giant plant response rating (giant foxtail [3]; [15]): 0
Foxtail, Giant plant response rating (giant foxtail [3]; [16]): 0
Morningglory plant response rating (morningglory [4]; [13]): 0
Plant response rating, Morningglory (morningglory [4]; [14]): 0
Morningglory plant response rating (morningglory [4]; [15]): 0
Morningglory plant response rating (morningglory [4]; [16]): 0
Pigweed plant response rating (redroot pigweed; [13]): 0
Plant response rating, Pigweed (redroot pigweed; [14]): 0
Pigweed plant response rating (redroot pigweed; [15]): 0
Pigweed plant response rating (redroot pigweed; [16]): 0
Velvetleaf plant response rating (velvetleaf [5]; [13]): 0
Plant response rating, Velvetleaf (velvetleaf [5]; [14]): 0
Velvetleaf plant response rating (velvetleaf [5]; [15]): 0
Velvetleaf plant response rating (velvetleaf [5]; [16]): 0
Barnyardgrass plant response rating (barnyardgrass [6]; [17]): 0
Plant response rating, Barnyardgrass (barnyardgrass [6]; [18]): 10
Barnyardgrass plant response rating (barnyardgrass [6]; [19]): 60
Plant response rating, Surinam Grass (Surinam grass; [18]): 10
Surinam Grass plant response rating (Surinam grass; [19]): 30
Plant response rating, Surinam Grass (Surinam grass; [20]): 0
Cocklebur plant response rating (cocklebur; [17]): 10
Plant response rating, Cocklebur (cocklebur; [18]): 20
Cocklebur plant response rating (cocklebur; [19]): 0
Corn plant response rating (corn; [17]): 10
Plant response rating, Corn (corn; [18]): 10
Corn plant response rating (corn; [19]): 0
Crabgrass, Large plant response rating (large crabgrass [7]; [17]): 0
Plant response rating, Crabgrass, Large (large crabgrass [7]; [18]): 10
Crabgrass, Large plant response rating (large crabgrass [7]; [19]): 60
Foxtail, Giant plant response rating (giant foxtail [8]; [17]): 0
Plant response rating, Foxtail, Giant (giant foxtail [8]; [18]): 10
Foxtail, Giant plant response rating (giant foxtail [8]; [19]): 10
Plant response rating, Foxtail, Giant (giant foxtail [8]; [20]): 0
Lambsquarters plant response rating (lambsquarters; [17]): 70
Plant response rating, Lambsquarters (lambsquarters; [18]): 90
Lambsquarters plant response rating (lambsquarters; [19]): 100
Plant response rating, Lambsquarters (lambsquarters; [20]): 100
Morningglory plant response rating (morningglory [9]; [17]): 0
Plant response rating, Morningglory (morningglory [9]; [18]): 0
Morningglory plant response rating (morningglory [9]; [19]): 60
Plant response rating, Morningglory (morningglory [9]; [20]): 50
Plant response rating, Pigweed (pigweed; [18]): 50
Pigweed plant response rating (pigweed; [19]): 70
Plant response rating, Pigweed (pigweed; [20]): 0
Plant response rating, Velvetleaf (velvetleaf [10]; [18]): 30
Velvetleaf plant response rating (velvetleaf [10]; [19]): 70
Plant response rating, Velvetleaf (velvetleaf [10]; [20]): 0
Blackgrass plant response rating (blackgrass; 125 g ai/ha): 0
Plant response rating, Blackgrass (blackgrass; [21]): 0
Plant response rating, Wheat (wheat): 10
Oat, Wild plant response rating (wild oat; 125 g ai/ha): 10
Plant response rating, Oat, Wild (wild oat; [21]): 20
Rice plant response rating (rice): 0
Sedge, Umbrella plant response rating [11]: 20
Ducksalad plant response rating (ducksalad): 0
Barnyardgrass plant response rating (barnyardgrass [12]): 0
